The values below come from patent US20150038545A1, “HYDROXYPHENYL PYRROLE COMPOUNDS CONTAINING AN HYDROXAMIC ACID AS HDAC INHIBITORS AND MEDICINAL APPLICATIONS THEREOF” (UNIVERSIDAD DEL PAÍS VASCO, priority 2011, published 2015).

One test addresses T1, Human HDAC5 (Homo sapiens, UniProt Q9UQL6).
T1 construct: Full length with Nterminal GST tag, MW=150 kDa; GST (N); purchased BioMol, Hamburg, Germany; host or cells: Sf9 cells, baculovirus
Description: In vitro HDAC5 inhibition, fluorogenic peptide assay. Type of test: biochemical. The settings on record: for IC50: read-out: IC50 (nM) of enzyme activity HDAC5. How it is done:
All HDAC assays were performed using acetylated AMC-labeled peptide substrate: • Substrate for isoforms HDAC1, 2, 3, 4, 5, 6, 7, 9, 10, 11 and HeLa nuclear extract assays: Acetylated fluorogenic peptide from p53 residues 379-382 (RHKKAc) (BioMol. Cat. # KI-104). • Substrate for HDAC8 assays: Acetylated fluorogenic peptide from p53 residues 379-382 (RHKAcKAc) (BioMol. Cat. # KI-178).
Enzymes: • HDAC1 assay: 75 nM Human HDAC1 (GenBank Accession No. NM_004964): Full length with C-terminal GST tag, MW=79.9 kDa, expressed by baculovirus expression system in Sf9 cells (BioMol. Cat. # SE-456). • HDAC2 assay: 5 nM Human HDAC2 (GenBank Accession No. Q92769): Full length with C-terminal His tag, MW=60 kDa, expressed by baculovirus expression system in Sf9 cells (BioMol. Cat. # SE-500). • HDAC3 assay: 2.3 nM Human HDAC3/NcoR2 (GenBank Accession No. NM_003883 for HDAC3, GenBank Accession No.NM_006312 for NcoR2): Complex of human HDAC3, full length with C-terminal His tag, MW=49.7 kDa, and human NCOR2, N-terminal GST tag, MW=39 kDa, co-expressed in baculovirus expression system (BioMol. Cat. # SE-507). • HDAC4 assay: 266 nM Human HDAC4 (GenBank Accession No. NM_006037): Amino acids 627-1085 with N-terminal GST tag, MW=75.2 kDa, expressed in baculovirus expression system (BioMol, Hamburg, Germany). • HDAC5 assay: 588 nM Human HDAC5 (GenBank Accession No. NM_001015053): Full length with Nterminal GST tag, MW=150 kDa, expressed by baculovirus expression system in Sf9 cells (BioMol, Hamburg, Germany). • HDAC6 assay: 13 nM Human HDAC6 (GenBank Accession No. BC069243): Full length with N-terminal GST tag, MW=159 kDa, expressed by baculovirus expression system in Sf9 cells (BioMol. Cat. # SE-508). • HDAC7 assay: 962 nM Human HDAC7 (GenBank Accession No. AY302468): Amino acids 518-end with N-terminal GST tag, MW=78 kDa, expressed in baculovirus expression system (BioMol, Hamburg, Germany). • HDAC8 assay: 119 nM Human HDAC8 (GenBank Accession No. NM018486): Full length, MW=42 kDa, expressed in an E. coli expression system (BioMol. […]
The reactions were carried out in a 96-well microplate for fluorometry in a 50 μl reaction volume. […] The reaction was allowed to develop for 45 minutes at 30° C. with 5% CO2; then the fluorescent signal was measured with an excitation wavelength at 360 nm and an emission wavelength at 460 nm in a microplate-reading fluorometer (GeminiXS; Molecular Devices, Sunnyvale, Calif.). […] IC50 was calculated by fitting the experimental data to a dose-response curve. […]

The test system of another test is SK-BR-3. Description: Cancer cell growth inhibition (CellTiter-Glo), SK-BR-3. Type of test: cell-based, Human. The settings on record: Homo sapiens; Breast Cancer, SK-BR-3, 72 h treatment. How it is done:
(§1) Cell culture-based assays were used to evaluate the ability of compounds of the invention to inhibit cancer cell growth.
(§2) Cells were obtained from the American Type Culture Collection (ATCC). Cells were cultured at 37° C. with 5% CO2 in the appropriate growth medium (see table below), and harvested respectively during the logarithmic growth period and counted with hemocytometer. The cell viability was examined by trypan blue exclusion. Cell concentrations were adjusted to 5.56×10^4 cells/ml with respective medium.
(§3) Stock solutions of test compounds and positive drugs Doxorubicin (Zhejiang, Haizheng, China), Cisplatin (Nanjing Zhiyao, China) and Mitomycin (Zhejiang, Haizheng, China) were prepared in dimethyl sulphoxide (DMSO) or PBS at 20 mM.
(§4) In order to determine the IC50 for each compound, experiments were carried out in 96-well plates and the cell lines seeded at a density of 5,000 cells/well. […] All treatments were performed in triplicate. 10 μl of drug solution was added to each well and incubated for 72 hours. At the end of the incubation, 100 μl of the CellTiter-Glo Reagent were added to each well and the contents were mixed for 2 munites on an orbital shaker to induce cell lysis. The plate was incubated at room temperature for 10 minutes to stabilize luminiscent signal, and luminiscent was recorded. […] In order to calculate IC50 values, dose-responsive curves were fitted using nonlinear regression model with a sigmoidal dose response.
A general note: Cellular ATP, detected with luciferase, serves as a proxy for viable cell number.

A further test has as its system HT-1080. Description: Cancer cell growth inhibition (CellTiter-Glo), HT-1080. The format is cell-based. The settings on record: Homo sapiens; Fibrosarcoma, HT-1080, 72 h treatment. As for the experimental part:
as §1, §2, §3, §4

A further test deals with A375. In words: Cancer cell growth inhibition (CellTiter-Glo), A375. The format is cell-based, Human. The settings on record: Homo sapiens, A-375; Melanoma, A375, 72 h treatment. As for the experimental part: as §1, §2, §3, §4
The test system of the next test is PANC-1. Description: Cancer cell growth inhibition (CellTiter-Glo), PANC-1. Type of test: cell-based, Human. The settings on record: Homo sapiens; Pancreatic Cancer, PANC-1, 72 h treatment. As for the experimental part: as §1, §2, §3, §4
The next test concerns DLD-1. Description: Cancer cell growth inhibition (CellTiter-Glo), DLD-1. Type of test: cell-based, Human. The settings on record: Homo sapiens; Colorectal Cancer, DLD-1, 72 h treatment. How it is done:
as §1, §2, §3, §4

T1 sequence (Q9UQL6 1-1123 isoform Q9UQL6-3): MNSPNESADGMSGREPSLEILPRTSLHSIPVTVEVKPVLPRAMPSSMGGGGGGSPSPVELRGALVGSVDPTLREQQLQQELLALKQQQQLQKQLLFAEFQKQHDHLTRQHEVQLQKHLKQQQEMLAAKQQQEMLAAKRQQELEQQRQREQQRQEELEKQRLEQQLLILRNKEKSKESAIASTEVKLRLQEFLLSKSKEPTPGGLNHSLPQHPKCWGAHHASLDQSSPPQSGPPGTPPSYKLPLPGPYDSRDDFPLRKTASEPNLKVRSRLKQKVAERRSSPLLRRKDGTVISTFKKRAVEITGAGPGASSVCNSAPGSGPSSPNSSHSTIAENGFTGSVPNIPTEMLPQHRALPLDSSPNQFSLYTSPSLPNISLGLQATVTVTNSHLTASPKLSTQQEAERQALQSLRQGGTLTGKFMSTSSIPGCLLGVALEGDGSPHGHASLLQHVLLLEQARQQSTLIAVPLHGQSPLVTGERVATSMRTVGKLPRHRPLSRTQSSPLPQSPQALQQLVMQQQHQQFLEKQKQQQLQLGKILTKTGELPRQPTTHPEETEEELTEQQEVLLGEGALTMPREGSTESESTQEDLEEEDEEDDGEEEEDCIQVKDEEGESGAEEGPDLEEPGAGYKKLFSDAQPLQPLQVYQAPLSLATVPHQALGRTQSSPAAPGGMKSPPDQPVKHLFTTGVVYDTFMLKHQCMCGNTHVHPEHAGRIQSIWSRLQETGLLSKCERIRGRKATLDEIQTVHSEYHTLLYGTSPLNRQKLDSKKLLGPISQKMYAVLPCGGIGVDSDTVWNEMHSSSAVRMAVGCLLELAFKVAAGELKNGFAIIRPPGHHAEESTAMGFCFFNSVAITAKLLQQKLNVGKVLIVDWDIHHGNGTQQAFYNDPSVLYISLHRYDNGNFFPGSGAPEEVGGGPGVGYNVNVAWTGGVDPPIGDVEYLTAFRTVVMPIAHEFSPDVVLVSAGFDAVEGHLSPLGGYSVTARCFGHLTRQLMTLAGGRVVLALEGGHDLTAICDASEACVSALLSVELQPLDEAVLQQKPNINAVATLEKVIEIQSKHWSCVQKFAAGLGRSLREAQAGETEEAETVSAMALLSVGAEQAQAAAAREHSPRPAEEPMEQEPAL

Take `COc1ccc(-c2cc(-c3ccccc3)[nH]c2C(=O)NCCCCCC(=O)NO)cc1` [Compound A, N-[6-(hydroxyamino)-6-oxohexyl]-3-(4-methoxyphenyl)-5-phenyl-1H-pyrrole-2-carboxamide, reference compound]: the “Selectivity against HDAC6 (IC50 HDACx/IC50 HDAC6) HDAC5” value at Human HDAC5 (IC50 HDAC5/IC50 HDAC6) is 32.7. The IC50 (usually the concentration that inhibits the measured activity by half) at Human HDAC5 came to 655 nM.

For the compound `O=C(CCCCCNC(=O)c1[nH]c(-c2ccccc2)cc1-c1ccc(O)cc1)NO` [Example 1, N-(6-(hydroxyamino)-6-oxohexyl)-3-(4-hydroxyphenyl)-5-phenyl-1H-pyrrole-2-carboxamide], the IC50 with SK-BR-3 turned out to be 3.49 µM; in the test with HT-1080, 3 µM; in the test with A375, 2.05 µM; in the test with PANC-1 it was 6.04 µM; in the test on DLD-1, 1.62 µM.

For `O=C(CCCCCNC(=O)c1[nH]c(-c2ccc(O)cc2)cc1-c1ccccc1)NO` [Example 2, N-(6-(hydroxyamino)-6-oxohexyl)-5-(4-hydroxyphenyl)-3-phenyl-1H-pyrrole-2-carboxamide], the IC50 in the test on SK-BR-3 turned out to be 3.37 µM; in the test with HT-1080, 3.24 µM; with A375 it was 4.07 µM; in the test on PANC-1 it was 27.7 µM; with DLD-1 it was 4.19 µM.

In the case of `O=C(CCCCCNC(=O)c1[nH]c(-c2ccc(O)cc2)cc1-c1ccoc1)NO` [Example 5, 3-(3-furyl)-N-(5-(hydroxycarbamoyl)pentyl)-5-(4-hydroxy-phenyl)-1H-pyrrole-2-carboxamide], the concentration for half-maximal inhibition (IC50) turned out to be 0.43 µM with SK-BR-3; 14 nM at Human HDAC5; 3.12 µM with HT-1080; 3.64 µM with A375; 29.2 µM with PANC-1; 2.51 µM in the test on DLD-1.

Take `O=C(CCCCCNC(=O)c1[nH]c(-c2ccc(O)cc2)cc1-c1ccsc1)NO` [Example 6, N-(5-(hydroxycarbamoyl)pentyl)-5-(4-hydroxyphenyl)-3-(3-thienyl)-1H-pyrrole-2-carboxamide]: the IC50 in the test on SK-BR-3 was determined as 1.36 µM; at Human HDAC5 it was 43 nM; in the test with HT-1080, 3.1 µM; in the test with A375, 3.2 µM; in the test on PANC-1 it was 22.2 µM; with DLD-1 it was 3.5 µM.
